Measured values from article PMC3747596 (PLoS ONE, 2013).
pEC50, pIC50, pKi: −log10 of the molar value.

Key:
[1] = target: nociceptin/orphanin FQ receptor (NOP); design: method as in PMID 8943250; settings: cited from earlier work
[2] = system: nociceptin/orphanin FQ receptor (NOP); design: method as in PMID 11510482; settings: at 10 µM; cited from earlier work
[3] = target: T1, δ opioid receptor (Homo sapiens, UniProt P41143); test: Radioligand displacement, δ; assay type: binding; settings: K i, radioligand displacement (Table 1)
T1 construct: expressed in transfected cells
T1 sequence (P41143 whole entry): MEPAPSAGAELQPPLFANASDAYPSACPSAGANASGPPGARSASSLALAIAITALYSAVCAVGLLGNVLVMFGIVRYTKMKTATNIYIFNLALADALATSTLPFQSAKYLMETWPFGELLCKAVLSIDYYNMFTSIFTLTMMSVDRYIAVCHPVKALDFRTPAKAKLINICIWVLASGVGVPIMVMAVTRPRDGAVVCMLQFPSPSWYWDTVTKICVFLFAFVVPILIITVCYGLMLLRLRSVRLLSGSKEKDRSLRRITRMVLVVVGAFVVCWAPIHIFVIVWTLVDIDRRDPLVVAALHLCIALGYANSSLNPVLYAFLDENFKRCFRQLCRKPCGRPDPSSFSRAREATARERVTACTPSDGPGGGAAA

[4] = target: M1-R (Homo sapiens, UniProt P11229); design: method as in ref 9 = [9]; 9 Inan S (2010) Pharmacological and neuroanatomical analysis of GNTI-induced repetitive behavior in mice [Ph.D. thesis Thesis]. Philadelphia, PA: Temple University. Available: http://digital.library.t; settings: at 1 µM; [3H]N-methylscopolamine; cited from earlier work
M1-R, sequence (P11229 whole entry): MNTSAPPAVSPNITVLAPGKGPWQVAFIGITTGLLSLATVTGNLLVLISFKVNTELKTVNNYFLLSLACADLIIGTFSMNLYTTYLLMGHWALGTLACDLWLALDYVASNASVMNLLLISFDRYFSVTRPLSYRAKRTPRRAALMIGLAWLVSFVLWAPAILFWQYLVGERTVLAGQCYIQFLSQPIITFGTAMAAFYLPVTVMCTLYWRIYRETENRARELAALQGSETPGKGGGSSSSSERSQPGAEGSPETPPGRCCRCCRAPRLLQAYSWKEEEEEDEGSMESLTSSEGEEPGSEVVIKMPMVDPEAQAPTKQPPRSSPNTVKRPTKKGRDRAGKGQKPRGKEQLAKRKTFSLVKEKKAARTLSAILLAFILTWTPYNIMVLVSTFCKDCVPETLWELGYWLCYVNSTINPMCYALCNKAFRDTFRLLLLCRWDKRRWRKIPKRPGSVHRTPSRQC

[5] = target: T2, α1A-AR (Homo sapiens, UniProt P35348); test: PI hydrolysis assay, α1A-AR; settings: hydrolysis of phosphatidylinositol 4,5-bisphosphate (PI)
T2 sequence (P35348 1-466): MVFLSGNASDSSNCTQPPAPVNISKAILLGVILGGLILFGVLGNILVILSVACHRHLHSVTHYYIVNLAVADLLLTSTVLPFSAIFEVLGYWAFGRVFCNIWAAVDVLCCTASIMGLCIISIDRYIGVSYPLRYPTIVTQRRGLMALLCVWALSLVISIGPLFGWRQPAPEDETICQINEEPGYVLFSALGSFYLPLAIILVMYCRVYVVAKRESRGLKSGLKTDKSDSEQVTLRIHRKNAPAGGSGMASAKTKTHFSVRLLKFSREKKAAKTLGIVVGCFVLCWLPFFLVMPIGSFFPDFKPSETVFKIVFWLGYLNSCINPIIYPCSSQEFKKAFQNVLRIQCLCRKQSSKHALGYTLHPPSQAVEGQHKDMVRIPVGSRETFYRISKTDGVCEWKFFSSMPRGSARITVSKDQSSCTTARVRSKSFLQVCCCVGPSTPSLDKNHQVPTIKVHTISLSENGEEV

[6] = target: T2, α1A-AR; test: Intracellular calcium mobilization assay, α1A-AR
[7] = target: non-opioid receptors and transporters; test: Radioligand displacement panel, non-opioid targets; settings: read-out: K i for all non-opioid targets; 43 non-opioid targets
[8] = target: noradrenaline transporter (NET) (Homo sapiens, UniProt P23975); test: Inhibition of noradrenaline transporter, fluorescent dye uptake; assay type: cell-based; settings: 95% CI = 0.5 to 2.6 µM; read-out: IC50, inhibition of noradrenaline transport
noradrenaline transporter (NET), sequence (P23975 whole entry): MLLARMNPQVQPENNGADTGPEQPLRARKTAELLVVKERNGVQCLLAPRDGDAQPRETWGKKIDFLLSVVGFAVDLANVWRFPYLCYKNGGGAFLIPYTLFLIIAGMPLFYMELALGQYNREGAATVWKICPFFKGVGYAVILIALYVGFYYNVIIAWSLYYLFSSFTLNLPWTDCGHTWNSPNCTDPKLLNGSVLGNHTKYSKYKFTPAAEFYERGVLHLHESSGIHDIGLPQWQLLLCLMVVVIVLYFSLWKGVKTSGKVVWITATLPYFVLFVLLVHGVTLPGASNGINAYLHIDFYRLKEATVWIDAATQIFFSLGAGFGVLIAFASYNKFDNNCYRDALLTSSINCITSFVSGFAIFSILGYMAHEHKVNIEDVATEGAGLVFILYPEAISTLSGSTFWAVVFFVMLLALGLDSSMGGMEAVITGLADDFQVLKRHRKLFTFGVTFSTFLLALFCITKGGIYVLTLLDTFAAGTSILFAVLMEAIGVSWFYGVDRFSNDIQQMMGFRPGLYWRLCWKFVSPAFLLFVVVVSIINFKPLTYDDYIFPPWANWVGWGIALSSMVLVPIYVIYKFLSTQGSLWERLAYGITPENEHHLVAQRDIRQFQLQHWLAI

[9] = target: T3, human NOP (Homo sapiens, UniProt P41146); test: Inhibition of cyclic AMP production by N/OFQ, GloSensor assay in HEK293T cells; assay type: cell-based
T3 construct: expressed in transfected cells; host or cells: HEK293T
T3 sequence (P41146 whole entry): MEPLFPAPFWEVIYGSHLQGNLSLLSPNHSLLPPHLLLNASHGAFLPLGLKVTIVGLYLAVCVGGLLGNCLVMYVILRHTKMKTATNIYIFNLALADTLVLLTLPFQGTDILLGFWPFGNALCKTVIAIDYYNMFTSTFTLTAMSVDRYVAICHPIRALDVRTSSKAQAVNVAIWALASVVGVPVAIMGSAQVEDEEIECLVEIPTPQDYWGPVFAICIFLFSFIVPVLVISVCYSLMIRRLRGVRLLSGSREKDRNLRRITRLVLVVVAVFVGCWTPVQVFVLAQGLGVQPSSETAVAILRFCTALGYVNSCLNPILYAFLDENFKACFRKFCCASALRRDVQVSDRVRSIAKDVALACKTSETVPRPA

[10] = system: κ-OR; design: method as in ref 3 = [3]; 3 Béguin C, Cohen BM (2009) Medicinal Chemistry of Kappa Opioid Receptor Antagonists. In: Dean RL, Bilsky EJ, Negus SS, editors. Opiate Receptors and Antagonists: from Bench to Clinic. New York: Human; settings: cited from earlier work

In the case of `Oc1ccc2c3c1O[C@H]1c4[nH]c5c(c4C[C@@]4(O)[C@@H](C2)N(CC2CC2)CC[C@]314)C[C@@]1(O)[C@H]2Cc3ccc(O)c4c3[C@@]1(CCN2CC1CC1)[C@H]5O4` [nor-BNI, Nor-binaltorphimine], the pKi [1] is given as 6.11 and the “binding to NOP” value [2] is given as “no binding”.
For `N=C(N)Nc1ccc2[nH]c3c(c2c1)C[C@@]1(O)[C@H]2Cc4ccc(O)c5c4[C@@]1(CCN2CC1CC1)[C@H]3O5` [GNTI, 5′-guanidinonaltrindole], the pKi [3] is listed as 7.24, the “displacement from M1-R” value [4] is listed as 52% and the “effect on maximal response to noradrenaline, PI hydrolysis” value [5] is listed as “slightly reduced the maximal response to noradrenaline”. The pEC50 [6] was 7.39, the “activation of α1A-AR / inhibition of activation by noradrenaline” value ([6]; calcium mobilization, GNTI 30 µM) was “neither activated α1A-AR nor inhibited activation by noradrenaline” and the Emax ([6]; read-out: increase of the maximal response to noradrenaline) was ≤ 20%. For the same molecule, the pKi [7] was < 5.70.
In the case of `CC(C)[C@@H](CN1CC[C@@](C)(c2cccc(O)c2)[C@@H](C)C1)NC(=O)[C@H]1Cc2ccc(O)cc2CN1` [JDTic], the pIC50 [8] was 5.96, the “K B equivalent to the pA2 for a competitive antagonist” value ([9]; 95% CI = 4.6 to 1,200 nM) was 73 nM and the “effect on maximally-effective concentrations of N/OFQ (>100 nM)” value ([9]; JDTic 30 µM) was “not affected”. The Kb ([9]; antagonism of N/OFQ, inhibition of cyclic AMP production, read-out: pA2 (converted)) was 79.4 nM and the “K e in κ-OR functional assays” value [10] was < 20 pM.
